This note sets out measurements from US20090123565A9, “Copper-dependent non-traditional pro-inflammatory cytokine export and methods, compositions and kits relating thereto” (Maine Medical Center Research Institute, priority 2001, published 2009).

Each structure is given as a SMILES string. Starred links: 1 amine or outer side, 2 acyl side, 3 side chain; linkers in the order of their positions; H or OH if unused. Positions of bridges follow the written chain, without caps; N, C: chain ends. Non-standard residues stand in square brackets, D forms with d. Residues, ends and D or L forms follow the SMILES beside them. Chains are numbered I, II in the order given. Actinocin(9to1) = Cc1c2oc3c(C)ccc(C(=O)[*:1])c3nc-2c(C(=O)[*:2])c(N)c1=O; NMeV = CN[C@H](C(=O)O)C(C)C; Sar = CNCC(=O)O

The test has as its system IL1α release from NIH 3T3 cell transfectants. The test can be described thus: Heat shock-induced release of IL1α from NIH 3T3 cell transfectants (immunoblot of conditioned media). The class given is cell-based, human. The conditions noted are these: actinomycin D 10 μg/ml. As for the experimental part:
FIG. 5, comprising FIGS. 5A and 5B, depict the involvement of Cu^2+ in IL1α release. FIG. 5A is an image depicting results obtained using NIH 3T3 cells stably transfected with mIL1α-βGal. The cells were incubated for 18 hours at 37 C in the absence and presence of the Cu^2+ chelator, tetrathiomolybdate (TTM) as indicated and the untreated and treated cells either maintained at 37 C or subjected to heat shock as described in FIG. 3. The conditioned medium was evaluated for IL1α-βGal release by IL1α immunoblot analysis, and cell lysates from TTM-treated cells were used to monitor the intracellular level of IL1α-βGal expression. […] FIG. 5B is an image depicting release of IL1α-βGal in myc-S100A13 and IL1α-βGal NIH 3T3 cell cotransfectants and in insert-less vector and mIL1α-βGal NIH 3T3 cell transfectants in the presence and absence actinomycin D (10 μg/ml), as indicated, in response to heat shock. Conditioned media were processed and evaluated for IL1α-βGal immunoblot analysis as described in Tarantini et al. (2001).
Stable NIH 3T3 cell transfectants were generated accordingly with the following cDNA constructs cloned into pMEXneo (Tarantini, et al. 2001; Tarantini, et al. 1995; Tarantini, et al. 1998; LaVallee, et al. 1998; Carreira, et al. 1998; Landriscina, et al., 2001): human S100A13 with an amino-terminal fusion to a 6 Myc Tag (Myc-S100A13) (Landriscina, et al., 2001); human Myc-S100A13ΔBR (Landriscina, et al., 2001); human mIL1α (residues 113-271); human mIL1α with a carboxy-terminal fusion to a βGalactosidase tag (mIL1α-βGal) (Tarantini, et al. 2001); and pIL1α (residues 1-271) with a carboxy-terminal fusion to βGalactosidase (pIL1α-βGal) (Tarantini, et al. 2001). Recombinant human mIL1α was provided by Hoffmann-LaRoche. Recombinant human S100A13, as well as S100A13ΔBR, a S100A13 construct with the basic residue rich domain (residues 88 to 98) deleted, were generated as previously described (Landriscina, et al., 2001).
NIH 3T3 cell transfectants were grown to 70-80% confluency and prior to temperature stress, the cells were washed with serum-free DMEM. The heat shock was performed as previously described (Tarantini et al., 1995) in serum-free DMEM for 110 min at 42° C. Control cultures were incubated at 37° C. in serum-free DMEM. […] Immunoprecipitated and eluted proteins were resolved by 8% and 12% acrylamide SDS-PAGE, respectively, and evaluated by either IL1α (Tarantini, et al. 2001) or Myc (Landriscina, et al., 2001) immunoblot analysis. […] The effects of actinomycin D (Sigma Chemical Co., St. Louis, Mo.), cyclohexamide (Sigma) and tetrathiomolybdate (Sigma-Aldrich) on IL1α release were evaluated as previously reported (LaVallee et al., 1998).
Background: Immunoblotting shows a protein as a band on a membrane.

Turning to `Cc1c2oc3c(C)ccc(C(=O)N[C@@H]4C(=O)N[C@H](C(C)C)C(=O)N5CCC[C@H]5C(=O)N(C)CC(=O)N(C)[C@@H](C(C)C)C(=O)O[C@@H]4C)c3nc-2c(C(=O)N[C@@H]2C(=O)N[C@H](C(C)C)C(=O)N3CCC[C@H]3C(=O)N(C)CC(=O)N(C)[C@@H](C(C)C)C(=O)O[C@@H]2C)c(N)c1=O` [actinomycin D] (I: T[dV]P[Sar][NMeV] / II: T[dV]P[Sar][NMeV]; ester I:1-I:C, II:1-II:C; linker I:N-II:N via Actinocin(9to1)), the “repression of export of IL1α-βGal in response to heat shock” value (Myc-S100A13 and IL1α-βGal NIH 3T3 cell cotransfectants) is recorded as “unable to repress”. Further, the “repression of release of IL1α-βGal in response to heat shock” value (insert-less vector and IL1α-βGal NIH 3T3 cell cotransfectants) is given as “able to repress”.
